Results published in patent US7910747B2, “Phosphonate and phosphinate pyrazolylamide glucokinase activators” (Bristol-Myers Squibb Company, priority 2006, dated 2011).

Legend:
human glucokinase (GK) = molecular target: T1, human glucokinase (GK) (Homo sapiens, UniProt P35557); experiment: Glucokinase tandem enzymatic assay; type: biochemical; details: 12 mM glucose; for EC50: EC50 = concentration to achieve 50% of full activation; for Emax: expressed as % of basal activation, EC50 could not be calculated from the activation curves, read-out: Maximal activation (%) Human Glucokinase @ 12 mM Glucose
T1 construct: Full-length human hepatic GK (untagged) was expressed in BL21 STAR (DE3)pLysS cells; made in house; host or cells: E. coli BL21 STAR (DE3)pLysS
T1 sequence (P35557 1-466 isoform P35557-2): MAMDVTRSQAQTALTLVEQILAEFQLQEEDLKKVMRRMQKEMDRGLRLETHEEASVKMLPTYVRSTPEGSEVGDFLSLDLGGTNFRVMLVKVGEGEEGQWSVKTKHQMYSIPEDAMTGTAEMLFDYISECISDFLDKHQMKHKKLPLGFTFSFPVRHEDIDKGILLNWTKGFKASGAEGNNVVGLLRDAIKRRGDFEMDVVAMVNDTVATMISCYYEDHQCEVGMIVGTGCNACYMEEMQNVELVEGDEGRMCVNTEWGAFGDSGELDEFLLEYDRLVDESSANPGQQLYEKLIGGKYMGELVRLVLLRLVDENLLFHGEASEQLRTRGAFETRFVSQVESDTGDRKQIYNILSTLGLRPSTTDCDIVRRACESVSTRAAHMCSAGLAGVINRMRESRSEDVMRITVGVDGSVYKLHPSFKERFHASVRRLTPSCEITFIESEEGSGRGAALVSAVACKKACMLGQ
Procedure: Enzymatic activity of human glucokinase (GK) was measured by incubating GK, ATP, and glucose for discrete time periods followed by quenching with EDTA (ethylenediamine tetra-acetic acid). Relative amounts of product glucose-6-phosphate (G6P) were measured by then running a detection assay using G6P dehydrogenase and measuring the conversion of ThioNAD (thio-nicotinamide adenine dinucleotide) to ThioNADH (thio-dihydronicotinamide adenine dinucleotide) at a wavelength of 405 nm. This ‘uncoupled’ enzymatic reaction is denoted as the GK ‘tandem’ assay. Activation of GK by compounds can be assessed using this assay. The GK tandem assay protocol described below was followed using a range of activator compound concentrations from 0 to 100 μM at 5 and 12 mM of glucose. […] To initiate the GK reaction, magnesium-ATP (3 mM final concentration) was added to GK in buffer (final buffer conditions of 25 mM HEPES buffer, pH 7.1, containing 1 mM dithiothreitol and 5% DMSO). The total reaction volume was 20 μL. The reaction was allowed to proceed for ten minutes and was then quenched with 5 μL EDTA; 45 mM final). […] Absorbance was read, background glucose-6-phosphate levels were subtracted, after which activation was calculated as a percentage of control activity. Control activity was determined using GK in the presence of vehicle (DMSO), with background glucose-6-phosphate subtracted. Background glucose-6-phosphate was determined by pre-quenching GK with EDTA prior to reaction initiation with ATP.
Full-length human hepatic GK (untagged) was expressed in BL21 STAR (DE3)pLysS cells (Invitrogen) at 25° C. as described by Mookhtiar et al. (1). The protein was purified essentially as described by Lange (2) with a slight modification. […] The resulting pellet was resuspended in buffer, dialyzed, and applied directly to a Q-Sepharose (Sigma) column followed by elution with a linear 100-600 mM KCl gradient. GK containing fractions were pooled, dialyzed overnight vs. 25 mM Hepes pH 7.2/1 mM MgCl2/1 mM EDTA/0.1 M KCl/1 mM DTT, then dialyzed again with same buffer with 10% glycerol added.

[1] = tested on: male DIO (diet-induced obese) C57BL/6J mice; experiment: Oral glucose tolerance test (OGTT) in DIO mice; type: in vivo; details: 60 min before 2 g/kg oral glucose, DIO C57BL/6J mice; for Reduction in Glucose AUC at 30 mg/kg dose: 30 mg/kg oral
Procedure: […]. Mice were fasted overnight before use for experiments. A test compound or vehicle (either: 1) 40% PEG 400+10% Cremophore +50% water or 2) 10% dimethyl acetamide +10% ethanol +10% Cremophore +70% water) was given orally 60 min before oral administration of a glucose solution at a dose of 2 g/kg body weight (oral glucose tolerance test; OGTT). […].

Row | Structure (SMILES) | EC50 (human glucokinase (GK)) [nM] | also measured
1 | CCO[P@](C)(=O)Cc1csc(NC(=O)c2cc(Oc3ccc(S(C)(=O)=O)cc3)cc(O[C@@H](C)COC)c2)n1 (single isomer, unassigned) [Example 54] | 49 | Reduction in Glucose AUC at 30 mg/kg dose [1]: 68-82%
2 | CCOP(=O)(CSc1cnc(NC(=O)[C@H](CC2CCCC2)c2ccc(S(C)(=O)=O)cc2)s1)OCC [Example 22] | 402 | –
3 | CCOP(=O)(CS(=O)(=O)c1cnc(NC(=O)[C@H](CC2CCCC2)c2ccc(S(C)(=O)=O)cc2)s1)OCC [Example 23] | – | Emax (human glucokinase (GK)): 150%
4 | CCOP(=O)(Cc1ccc(NC(=O)c2cc(Oc3ccc(S(C)(=O)=O)cc3)cc(O[C@@H](C)COC)c2)nc1)OCC [Example 29] | 98 | Reduction in Glucose AUC at 30 mg/kg dose [1]: 66-78%
5 | CCOP(=O)(Cn1ccc(NC(=O)c2cc(Oc3ccc(S(C)(=O)=O)cc3)cc(O[C@@H](C)COC)c2)n1)OCC [Example 32] | 65 | Reduction in Glucose AUC ([1]; 30 μmol/kg oral): 79% @ 30 μmol/kg
6 | CCOP(=O)(Cn1ccc(NC(=O)c2cc(O[C@@H](C)COC)cc(O[C@@H](C)Cc3ccccc3)c2)n1)OCC [Example 33] | 26 | –
7 | CCOP(=O)(/C=C/c1cnc(NC(=O)[C@H](CC2CCCC2)c2ccc(S(C)(=O)=O)cc2)s1)OCC [Example 35] | – | Emax (human glucokinase (GK)): 133%
8 | CCOP(=O)(Cc1csc(NC(=O)c2cc(Oc3ccc(S(C)(=O)=O)cc3)cc(O[C@@H](C)COC)c2)n1)OCC [Example 37] | 34 | Reduction in Glucose AUC at 30 mg/kg dose [1]: 88%
9 | CCOP(=O)(Cc1cnc(NC(=O)[C@H](CC2CCOCC2)c2ccc(S(=O)(=O)C3CC3)cc2)cn1)OCC [Example 44] | 564 | Reduction in Glucose AUC at 30 mg/kg dose [1]: 62-80%
10 | CCOP(=O)(Cc1nc(NC(=O)c2cc(Oc3ccc(S(C)(=O)=O)cc3)cc(O[C@@H](C)COC)c2)sc1Cl)OCC [Example 50] | 22 | –
11 | CCOP(=O)(Cc1nc(NC(=O)c2cc(Oc3ccc(S(C)(=O)=O)cc3)cc(O[C@@H](C)COC)c2)sc1Br)OCC [Example 51] | 15 | –
12 | COC[C@H](C)Oc1cc(Oc2ccc(S(C)(=O)=O)cc2)cc(C(=O)Nc2nc(CP(C)(=O)O)cs2)c1 [Example 56] | 534 | –
13 | CCOP(=O)(Cc1csc(NC(=O)c2cc(CN3CCOC3=O)cc(OC)c2)n1)OCC [Example 65] | – | Emax (human glucokinase (GK)): 162%
14 | CCOP(=O)(Cc1csc(NC(=O)Cc2ccc(OC)cc2OC)n1)OCC [Example 74] | – | Emax (human glucokinase (GK)): 142%
15 | CCOP(=O)(Cc1csc(NC(=O)c2ccc3c(c2)OCCO3)n1)OCC [Example 79] | – | Emax (human glucokinase (GK)): 133%
16 | CCOP(=O)(Cc1csc(NC(=O)c2nn(CC3CC3)c3cc(S(C)(=O)=O)ccc23)n1)OCC [Example 86] | – | Emax (human glucokinase (GK)): 141%
17 | CCOP(=O)(Cc1csc(NC(=O)c2cc(OC(C)C)cc(O[C@H]3CCN(C(C)=O)C3)c2)n1)OCC [Example 112] | 428 | –
18 | CCOP(=O)(Cc1csc(NC(=O)c2cc(OC(C)C)cc(O[C@H]3CCN(S(C)(=O)=O)C3)c2)n1)OCC [Example 113] | 437 | –
19 | CCOP(=O)(Cc1csc(NC(=O)c2cc(OC(C)C)cc(O[C@@H]3CCN(C(=O)OC)C3)c2)n1)OCC [Example 116] | 469 | –
20 | CCOP(=O)(Cc1csc(NC(=O)c2cc(OCC(O)c3ccccc3)cc(OC(C)C)c2)n1)OCC (centres unmarked) [Example 121] | – | Emax (human glucokinase (GK)): 126%
21 | CCOP(=O)(Cn1ccc(NC(=O)c2cc(OCC(F)(F)c3ccccc3)cc(OC(C)C)c2)n1)OCC [Example 122] | 23 | –
22 | CCOP(=O)(Cc1csc(NC(=O)c2cc(OCC(F)(F)c3ccccc3)cc(OC(C)C)c2)n1)OCC [Example 123] | – | Emax (human glucokinase (GK)): 135%
23 | CCOP(=O)(Cc1csc(NC(=O)c2cc(OCCSC)cc(O[C@@H](C)COC)c2)n1)OCC [Example 134] | 476 | –
24 | CCOP(=O)(Cc1csc(NC(=O)c2cc(O[C@@H](C)CO)cc(O[C@@H](C)Cc3ccccc3)c2)n1)OCC [Example 137] | 21 | –
25 | CCOP(=O)(Cc1csc(NC(=O)c2cc(OCCCS(C)(=O)=O)cc(O[C@@H](C)COC)c2)n1)OCC [Example 139] | 467 | –
26 | CCOP(=O)(Cc1csc(NC(=O)c2cc(O[C@@H](C)COC)cc(O[C@@H](C)Cc3ccccc3)c2)n1)OCC [Example 145] | 24 | Reduction in Glucose AUC at 30 mg/kg dose [1]: 71%
27 | CCOP(=O)(Cc1csc(NC(=O)c2cc(OC(C)C)cc(OC(C)C)c2)n1)OCC [Example 148] | 178 | Reduction in Glucose AUC at 30 mg/kg dose [1]: 60%
28 | COC[C@H](C)Oc1cc(Oc2ccc(S(C)(=O)=O)cc2)cc(C(=O)Nc2nc(CP3(=O)OCCCO3)cs2)c1 [Example 169] | 9 | –
